Active and inactive are the calls of the source. The calls are words filed in the database; no cut-off is given here.
Columns and labels:
[1] = Cytotoxicity against human MIAPaCa2 cells at 10 uM after 48 hrs by SRB assay; format: functional; conditions: MIA PaCa-2, 48 h
[2] = Cytotoxicity against human PLC/PRF/5 cells at 10 uM after 48 hrs by SRB assay; format: functional; conditions: PLC-PRF-5, 48 h
[3] = test system: SK-OV-3; assay: Cytotoxicity against human SKOV3 cells at 10 uM after 48 hrs by SRB assay; format: functional; conditions: SK-OV-3, 48 h
[4] = test system: DU-145; assay: Cytotoxicity against human DU145 cells at 10 uM after 48 hrs by SRB assay; format: functional; conditions: DU-145, 48 h
[5] = Cytotoxicity against human A172 cells at 10 uM after 48 hrs by SRB assay; format: functional; conditions: A 172, 48 h
[6] = test system: A549; assay: Cytotoxicity against human A549 cells at 10 uM after 48 hrs by SRB assay; format: functional; conditions: A549, 48 h
[7] = test system: MCF7; assay: Cytotoxicity against human MCF7 cells at 10 uM after 48 hrs by SRB assay; format: functional; conditions: MCF7, 48 h
[8] = Cytotoxicity against human DLD1 cells at 10 uM after 48 hrs by SRB assay; format: functional; conditions: DLD-1, 48 h
[9] = Cytotoxicity against human A172 cells after 48 hrs by SRB assay; format: functional, cell-based; conditions: A 172, 48 h
[10] = test system: MCF7; assay: Cytotoxicity against human MCF7 cells after 48 hrs by SRB assay; format: functional, cell-based; conditions: for IC50: MCF7, 48 h
[11] = test system: A549; assay: Cytotoxicity against human A549 cells after 48 hrs by SRB assay; format: functional, cell-based; conditions: A549, 48 h
[12] = test system: PC-3; assay: Cytotoxicity against human PC3 cells after 48 hrs by SRB assay; format: functional, cell-based; conditions: PC-3, 48 h
[13] = test system: SK-OV-3; assay: Cytotoxicity against human SKOV3 cells after 48 hrs by SRB assay; format: functional, cell-based; conditions: SK-OV-3, 48 h
[14] = test system: Vero; assay: Cytotoxicity against African green monkey Vero cells after 48 hrs by SRB assay; format: cell-based; conditions: Chlorocebus sabaeus
[15] = test system: 4T1; assay: Cytotoxicity against mouse 4T1 cells after 48 hrs by SRB assay; format: functional, cell-based
[16] = test system: MDA-MB-231; assay: Cytotoxicity against human MDA-MB-231 cells after 48 hrs by SRB assay; format: functional, cell-based
[17] = test system: MCF7; assay: Induction of apoptosis in human MCF7 cells assessed as necrotic cells after 24 hrs using 7-AAD/annexin-V staining by flow cytometry analysis; format: functional
[18] = test system: MCF7; assay: Induction of apoptosis in human MCF7 cells assessed as viable cells after 24 hrs using 7-AAD/annexin-V staining by flow cytometry analysis; format: functional
[19] = test system: MCF7; assay: Induction of apoptosis in human MCF7 cells assessed as late apoptotic cells after 24 hrs using 7-AAD/annexin-V staining by flow cytometry analysis; format: functional
[20] = test system: MCF7; assay: Induction of apoptosis in human MCF7 cells assessed as early apoptotic cells after 24 hrs using 7-AAD/annexin-V staining by flow cytometry analysis; format: functional
[21] = test system: MCF7; assay: Induction of apoptosis in human MCF7 cells assessed as DNA fragmentation at 10 uM after 24 hrs […] by APOBrdU TUNNEL assay; format: functional, cell-based

Row | SMILES | inhibition at 10 µM [1] [%] | inhibition at 10 µM [2] [%] | inhibition at 10 µM [3] [%] | inhibition at 10 µM [4] [%] | inhibition at 10 µM [5] [%] | inhibition at 10 µM [6] [%] | inhibition at 10 µM [7] [%] | inhibition at 10 µM [8] [%] | other results
1 | Cc1ccc(C(=O)/C=C/c2nccc3c4ccccc4n(C)c23)cc1 | 13.7 | 32.2 | 46.2 | 45.7 | 19.2 | 13.2 | 20.8 | 35.8 | –
2 | CCn1c2ccccc2c2ccnc(/C=C/C(=O)c3ccc(OC)cc3)c21 | 9.18 | 61.6 | 43.7 | 52.5 | 39.2 | 21.2 | 27.2 | 55.5 | –
3 | CCn1c2ccccc2c2ccnc(/C=C/C(=O)c3ccc(C)cc3)c21 | 11.9 | 34.1 | 47.7 | 35 | 26.6 | 16.4 | 30 | 44.1 | –
4 | O=C(/C=C/c1nccc2c1[nH]c1ccccc12)c1ccc(Br)cc1 | -4.72 | 26.4 | -2.43 | -0.24 | 5.41 | 9.19 | 7.15 | 14.9 | –
5 | CCn1c2ccccc2c2ccnc(/C=C/C(=O)c3ccccc3)c21 | 25 | 75.1 | 33.5 | 54.2 | 80.5 | 12.5 | 39.3 | 77.6 | –
6 | COc1cc(C(=O)/C=C/c2nccc3c2[nH]c2ccccc23)cc(OC)c1OC | 84.8 | 73.9 | 36.6 | 76.1 | 65 | 73.4 | 86.8 | 80.6 | IC50 [9]: > 10 µM; Activity [10]: Dose-dependent effect; IC50 [10]: 3.29 µM; IC50 [11]: 5.41 µM; IC50 [12]: > 10 µM; IC50 [13]: > 10 µM; IC50 [14]: > 10 µM; Activity [15]: Dose-dependent effect; Activity [16]: Dose-dependent effect
7 | COc1cc(C(=O)/C=C/c2nccc3c4ccccc4n(C)c23)cc(OC)c1OC | 19 | 40.1 | 37.4 | 59.5 | 38.8 | 33.8 | 28.8 | 49.5 | –
8 | COc1ccc(C(=O)/C=C/c2nccc3c2[nH]c2ccccc23)cc1 | 33.7 | 70.8 | 33.9 | 61.9 | 77.2 | 29.2 | 37.2 | 74.2 | –
9 | COc1cccc2c1C(=O)c1c(O)c3c(c(O)c1C2=O)C[C@@](O)(C(=O)CO)C[C@@H]3O[C@H]1C[C@H](N)[C@H](O)[C@H](C)O1 [DOXORUBICIN] | 85.1 | 90.7 | 69.2 | 73.9 | 67.6 | 69 | 56.9 | 73.2 | –
10 | COc1ccc(C(=O)/C=C/c2nccc3c2[nH]c2ccccc23)cc1OC | 87.5 | 78.3 | 41.6 | 71.9 | 74.3 | 84.7 | 94.5 | 88.1 | IC50 [9]: 3.33 µM; Activity [10]: Dose-dependent effect; IC50 [10]: 2.25 µM; IC50 [11]: 2.31 µM; IC50 [12]: 5.99 µM; IC50 [13]: > 10 µM; IC50 [14]: > 10 µM; Activity [15]: Dose-dependent effect; Activity [16]: Dose-dependent effect; Activity [17]: 3.12%; Activity [18]: 37%; Activity [19]: 39.5%; Activity [20]: 20.4%; Activity [21]: Active
11 | CCn1c2ccccc2c2ccnc(/C=C/C(=O)c3cc(OC)c(OC)c(OC)c3)c21 | 24.7 | 70.7 | 68.5 | 60.1 | 81.1 | 44.4 | 32.7 | 73.4 | –
12 | O=C(/C=C/c1nccc2c1[nH]c1ccccc12)c1ccc(Cl)cc1 | -13.1 | 80.5 | 0.2 | 7.63 | 75.8 | 4.68 | 15 | 41.2 | –
13 | Cc1ccc(C(=O)/C=C/c2nccc3c2[nH]c2ccccc23)cc1 | 2.1 | 70.5 | 5.1 | 11.4 | 60.5 | 9.91 | 20.9 | 42.4 | –
14 | CCn1c2ccccc2c2ccnc(/C=C/C(=O)c3ccc(OC)c(OC)c3)c21 | 15.3 | 56.2 | 57.6 | 56.8 | 70.1 | 35.6 | 29.6 | 66 | –
15 | O=C(/C=C/c1nccc2c1[nH]c1ccccc12)c1ccccc1 | 21.7 | 76.7 | 0.91 | 20.1 | 78.4 | 11.7 | 32.9 | 70.1 | –
16 | COc1ccc(C(=O)/C=C/c2nccc3c4ccccc4n(C)c23)cc1 | -0.03 | 16.9 | 37.4 | 9.1 | 0.18 | -3.88 | 8.18 | 28.2 | –
17 | O=C(/C=C/c1nccc2c1[nH]c1ccccc12)c1ccc(F)cc1 | -4.04 | 49.9 | 8.15 | -5.2 | 16.2 | 6.73 | 9.92 | 25.6 | –
18 | Cn1c2ccccc2c2ccnc(/C=C/C(=O)c3ccccc3)c21 | 25.5 | 64.9 | 28.6 | 53.2 | 75.5 | 19.3 | 27.2 | 67.5 | –
19 | COc1ccc(C(=O)/C=C/c2nccc3c4ccccc4n(C)c23)cc1OC | 7.71 | 42.4 | 68.7 | 34.1 | 15.5 | 19.6 | 12.9 | 45.3 | –
